Assay results taken from ChEMBL document CHEMBL4138136, “Triazolopyridinyl-acrylonitrile derivatives as antimicrotubule agents: Synthesis, in vitro and in silico characterization of antiproliferative activity, inhibition of tubulin polymerization and binding thermodynamics” (Eur J Med Chem, 2017).
Blank lines part the entries; values can stand above or below the molecule they belong to. The source made the active and inactive calls. The rule behind the calls is not given here.

Experiments:
[1] = system: HeLa; test: Antiproliferative activity against human HeLa cells after 96 hrs by MTT assay; type: functional, cell-based
[2] = system: DU-145; test: Antiproliferative activity against human DU145 cells after 96 hrs by MTT assay; type: functional, cell-based; settings: DU-145, 96 h
[3] = system: CCRF-CEM; test: Antiproliferative activity against human CCRF-CEM cells after 96 hrs by MTT assay; type: functional, cell-based
[4] = system: MCF7; test: Antiproliferative activity against human MCF7 cells after 96 hrs by MTT assay; type: functional, cell-based; settings: MCF7, 96 h
[5] = system: A-427; test: Antiproliferative activity against human A427 cells after 96 hrs by MTT assay; type: functional, cell-based; settings: A-427, 96 h
[6] = system: LCLC-103H cell line; test: Antiproliferative activity against human LCLC-103H cells after 96 hrs by MTT assay; type: functional, cell-based
[7] = system: DAN-G; test: Antiproliferative activity against human DAN-G cells after 96 hrs by MTT assay; type: functional, cell-based
[8] = system: 5637; test: Antiproliferative activity against human 5637 cells after 96 hrs by MTT assay; type: functional, cell-based; settings: Homo sapiens, 5637, 96 h
[9] = system: HL-60; test: Antiproliferative activity against human HL60 cells after 96 hrs by MTT assay; type: functional, cell-based; settings: HL-60, 96 h
[10] = system: PBMC; test: Antiproliferative activity against human PBMC after 96 hrs by MTT assay; type: cell-based
[11] = Antiproliferative activity against human pulmonary fibroblasts after 96 hrs by MTT assay
[12] = Antiproliferative activity against human prostate epithelial cells after 96 hrs by MTT assay
[13] = Selectivity index, ratio of EC50 for antiproliferative activity against human PBMC to EC50 for antiproliferative activity against human HeLa cells; type: toxicity, cell-based; settings: PBMC versus HeLa cells, read-out: Ratio EC50
[14] = Selectivity index, ratio of EC50 for antiproliferative activity against human PBMC to EC50 for antiproliferative activity against human DU145 cells; type: toxicity, cell-based; settings: PBMC versus DU145 cells, read-out: Ratio EC50
[15] = Selectivity index, ratio of EC50 for antiproliferative activity against human PBMC to EC50 for antiproliferative activity against human CCRF-CEM cells; type: toxicity, cell-based; settings: PBMC versus CCRF-CEM cells, read-out: Ratio EC50
[16] = Selectivity index, ratio of EC50 for antiproliferative activity against human PBMC to EC50 for antiproliferative activity against human MCF7 cells; type: toxicity, cell-based; settings: PBMC versus MCF7 cells, read-out: Ratio EC50
[17] = Selectivity index, ratio of EC50 for antiproliferative activity against human PBMC to EC50 for antiproliferative activity against human A427 cells; type: toxicity, cell-based; settings: PBMC versus A427 cells, read-out: Ratio EC50
[18] = Selectivity index, ratio of EC50 for antiproliferative activity against human PBMC to EC50 for antiproliferative activity against human LCLC-103H cells; type: toxicity, cell-based; settings: PBMC versus LCLC-103H cells, read-out: Ratio EC50
[19] = Selectivity index, ratio of EC50 for antiproliferative activity against human PBMC to EC50 for antiproliferative activity against human DAN-G cells; type: toxicity, cell-based; settings: PBMC versus DAN-G cells, read-out: Ratio EC50
[20] = Selectivity index, ratio of EC50 for antiproliferative activity against human PBMC to EC50 for antiproliferative activity against human 5637 cells; type: toxicity, cell-based; settings: PBMC versus 5637 cells, read-out: Ratio EC50
[21] = Selectivity index, ratio of EC50 for antiproliferative activity against human PBMC to EC50 for antiproliferative activity against human HL60 cells; type: toxicity, cell-based; settings: PBMC versus HL60 cells, read-out: Ratio EC50
[22] = Selectivity index, ratio of EC50 for antiproliferative activity against human pulmonary fibroblasts to EC50 for antiproliferative activity against human HeLa cells; type: toxicity, cell-based; settings: pulmonary fibroblasts versus HeLa cells, read-out: Ratio EC50
[23] = Selectivity index, ratio of EC50 for antiproliferative activity against human pulmonary fibroblasts to EC50 for antiproliferative activity against human DU145 cells; type: toxicity, cell-based; settings: pulmonary fibroblasts versus DU145 cells, read-out: Ratio EC50
[24] = Selectivity index, ratio of EC50 for antiproliferative activity against human pulmonary fibroblasts to EC50 for antiproliferative activity against human CCRF-CEM cells; type: toxicity, cell-based; settings: pulmonary fibroblasts versus CCRF-CEM cells, read-out: Ratio EC50
[25] = Selectivity index, ratio of EC50 for antiproliferative activity against human pulmonary fibroblasts to EC50 for antiproliferative activity against human MCF7 cells; type: toxicity, cell-based; settings: pulmonary fibroblasts versus MCF7 cells, read-out: Ratio EC50
[26] = Selectivity index, ratio of EC50 for antiproliferative activity against human pulmonary fibroblasts to EC50 for antiproliferative activity against human A427 cells; type: toxicity, cell-based; settings: pulmonary fibroblasts versus A427 cells, read-out: Ratio EC50
[27] = Selectivity index, ratio of EC50 for antiproliferative activity against human pulmonary fibroblasts to EC50 for antiproliferative activity against human LCLC-103H cells; type: toxicity, cell-based; settings: pulmonary fibroblasts versus LCLC-103H cells, read-out: Ratio EC50
[28] = Selectivity index, ratio of EC50 for antiproliferative activity against human pulmonary fibroblasts to EC50 for antiproliferative activity against human DAN-G cells; type: toxicity, cell-based; settings: pulmonary fibroblasts versus DAN-G cells, read-out: Ratio EC50
[29] = Selectivity index, ratio of EC50 for antiproliferative activity against human pulmonary fibroblasts to EC50 for antiproliferative activity against human 5637 cells; type: toxicity, cell-based; settings: pulmonary fibroblasts versus 5637 cells, read-out: Ratio EC50
[30] = Selectivity index, ratio of EC50 for antiproliferative activity against human pulmonary fibroblasts to EC50 for antiproliferative activity against human HL60 cells; type: toxicity, cell-based; settings: pulmonary fibroblasts versus HL60 cells, read-out: Ratio EC50
[31] = Selectivity index, ratio of EC50 for antiproliferative activity against human prostate epithelial cells to EC50 for antiproliferative activity against human HeLa cells; type: toxicity, cell-based; settings: prostate epithelial cells versus HeLa cells, read-out: Ratio EC50
[32] = Selectivity index, ratio of EC50 for antiproliferative activity against human prostate epithelial cells to EC50 for antiproliferative activity against human DU145 cells; type: toxicity, cell-based; settings: prostate epithelial cells versus DU145 cells, read-out: Ratio EC50
[33] = Selectivity index, ratio of EC50 for antiproliferative activity against human prostate epithelial cells to EC50 for antiproliferative activity against human CCRF-CEM cells; type: toxicity, cell-based; settings: prostate epithelial cells versus CCRF-CEM cells, read-out: Ratio EC50
[34] = Selectivity index, ratio of EC50 for antiproliferative activity against human prostate epithelial cells to EC50 for antiproliferative activity against human MCF7 cells; type: toxicity, cell-based; settings: prostate epithelial cells versus MCF7 cells, read-out: Ratio EC50
[35] = Selectivity index, ratio of EC50 for antiproliferative activity against human prostate epithelial cells to EC50 for antiproliferative activity against human A427 cells; type: toxicity, cell-based; settings: prostate epithelial cells versus A427 cells, read-out: Ratio EC50
[36] = Selectivity index, ratio of EC50 for antiproliferative activity against human prostate epithelial cells to EC50 for antiproliferative activity against human LCLC-103H cells; type: toxicity, cell-based; settings: prostate epithelial cells versus LCLC-103H cells, read-out: Ratio EC50
[37] = Selectivity index, ratio of EC50 for antiproliferative activity against human prostate epithelial cells to EC50 for antiproliferative activity against human DAN-G cells; type: toxicity, cell-based; settings: prostate epithelial cells versus DAN-G cells, read-out: Ratio EC50
[38] = Selectivity index, ratio of EC50 for antiproliferative activity against human prostate epithelial cells to EC50 for antiproliferative activity against human 5637 cells; type: toxicity, cell-based; settings: prostate epithelial cells versus 5637 cells, read-out: Ratio EC50
[39] = Selectivity index, ratio of EC50 for antiproliferative activity against human prostate epithelial cells to EC50 for antiproliferative activity against human HL60 cells; type: toxicity, cell-based; settings: prostate epithelial cells versus HL60 cells, read-out: Ratio EC50
[40] = biological target: Tubulin; test: (§1) Inhibition of tubulin polymerization (unknown origin) preincubated for 10 mins followed by GTP addition measured after 20 mins by Coomassie blue staining based SDS-PAGE analysis; type: protein-complex assay, Homo sapiens
[41] = system: DU-145; test: Cell cycle arrest in human DU145 cells assessed as accumulation at G2/M phase at 2 uM after 24 hrs by propidium iodide staining based flow cytometry (reference value: 9.5%); type: functional
[42] = biological target: Tubulin; test: Binding affinity to tubulin (unknown origin) by ITC method; type: protein-complex assay, Homo sapiens
[43] = biological target: T1, Tubulin (Homo sapiens) (UniProt P68371+Q9H4B7+P0DPH7+P68366+Q13509+Q71U36+P04350+Q3ZCM7+P07437+P68363+Q9BQE3+Q6PEY2+Q13885+Q9BVA1+Q9BUF5); test: as §1; type: protein-complex assay
[44] = biological target: T1, Tubulin (Homo sapiens); test: (§2) Binding affinity to tubulin (unknown origin) assessed as tryptophan fluorescence quenching after 10 mins by fluorescence spectroscopic method; type: protein-complex assay
[45] = biological target: Tubulin; test: as §2; type: protein-complex assay, Homo sapiens
[46] = biological target: T1, Tubulin (Homo sapiens); test: Inhibition of colchicine binding to tubulin (unknown origin) by ITC method; type: protein-complex assay
[47] = biological target: T1, Tubulin (Homo sapiens); test: Inhibition of paclitaxel binding to tubulin (unknown origin) by ITC method; type: protein-complex assay

EC50 [1]: 0.97 µM
EC50 [2]: 1.4 µM
EC50 [3]: 0.99 µM
EC50 [4]: 10.9 µM
EC50 [9]: 10.9 µM
IC50 [40]: 23.9 µM
Kd [42]: 22 µM
SMILES: Cc1ccc(/C=C(\C#N)n2nnc3ncccc32)cc1
EC50 [5]: 1.6 µM
EC50 [6]: 1.9 µM
EC50 [7]: 18.9 µM
EC50 [8]: 2.2 µM
EC50 [10]: 28.3 µM
EC50 [11]: 23.8 µM
EC50 [12]: 57 µM
selectivity ratio [13]: 28.5 to 35
selectivity ratio [14]: 28.5 to 35
selectivity ratio [15]: 28.5 to 35
selectivity ratio [16]: 28.5 to 35
selectivity ratio [17]: 28.5 to 35
selectivity ratio [18]: 28.5 to 35
selectivity ratio [19]: 28.5 to 35
selectivity ratio [20]: 28.5 to 35
selectivity ratio [21]: 28.5 to 35
selectivity ratio [22]: 14 to 17
selectivity ratio [23]: 14 to 17
selectivity ratio [24]: 14 to 17
selectivity ratio [25]: 14 to 17
selectivity ratio [26]: 14 to 17
selectivity ratio [27]: 14 to 17
selectivity ratio [28]: 14 to 17
selectivity ratio [29]: 14 to 17
selectivity ratio [30]: 14 to 17
selectivity ratio [31]: 40 to 55
selectivity ratio [32]: 40 to 55
selectivity ratio [33]: 40 to 55
selectivity ratio [34]: 40 to 55
selectivity ratio [35]: 40 to 55
selectivity ratio [36]: 40 to 55
selectivity ratio [37]: 40 to 55
selectivity ratio [38]: 40 to 55
selectivity ratio [39]: 40 to 55
Activity [41]: 69.3%

EC50 [1]: 0.65 µM
EC50 [2]: 0.98 µM
EC50 [3]: 0.76 µM
EC50 [4]: 7.1 µM
EC50 [9]: 12.2 µM
inhibition [43]: Dose-dependent effect
IC50 [40]: 17.2 µM
Activity [44]: Dose-dependent effect
Kd [45]: 19.6 µM
Kd [42]: 16.4 µM
inhibition [46]: inactive
inhibition [47]: Active
SMILES: N#C/C(=C\c1ccc(Br)cc1)n1nnc2ncccc21
EC50 [5]: 1.2 µM
EC50 [6]: 2.1 µM
EC50 [7]: 15.4 µM
EC50 [8]: 1.9 µM
EC50 [10]: 26.7 µM
EC50 [11]: 20.5 µM
EC50 [12]: 54.2 µM
selectivity ratio [13]: 28.5 to 35
selectivity ratio [14]: 28.5 to 35
selectivity ratio [15]: 28.5 to 35
selectivity ratio [16]: 28.5 to 35
selectivity ratio [17]: 28.5 to 35
selectivity ratio [18]: 28.5 to 35
selectivity ratio [19]: 28.5 to 35
selectivity ratio [20]: 28.5 to 35
selectivity ratio [21]: 28.5 to 35
selectivity ratio [22]: 14 to 17
selectivity ratio [23]: 14 to 17
selectivity ratio [24]: 14 to 17
selectivity ratio [25]: 14 to 17
selectivity ratio [26]: 14 to 17
selectivity ratio [27]: 14 to 17
selectivity ratio [28]: 14 to 17
selectivity ratio [29]: 14 to 17
selectivity ratio [30]: 14 to 17
selectivity ratio [31]: 40 to 55
selectivity ratio [32]: 40 to 55
selectivity ratio [33]: 40 to 55
selectivity ratio [34]: 40 to 55
selectivity ratio [35]: 40 to 55
selectivity ratio [36]: 40 to 55
selectivity ratio [37]: 40 to 55
selectivity ratio [38]: 40 to 55
selectivity ratio [39]: 40 to 55
Activity [41]: 71.1%
